A short description of the assay: CNT-FET control covalently functionalized with empty nanodiscs (Example 3). Conditions: empty nanodiscs 1:100 dilution; increasing amounts of ligand. As for the experimental part: The dispersion was sonicated until a clear solution was obtained. The temperature was kept at 25° C. throughout the sonication process. The thiolpyridine solution was prepared by dissolving 10 mg of 2-Mercaptopyridine (99%, Sigma Aldrich) in 1 ml of methanol. The solution was spun coated on a polydimethylsiloxane (PDMS) surface at 2000 rpm for one minute. Before the spin coating process, the PDMS surface was cleaned by a 50 W Oxygen plasma for 1 minute to improve the wettability. The cleaned substrates were placed upside down on the PDMS surface for three minutes and washed in ethanol to remove the excess thiolpyridine molecules. Then the substrates were transferred into the CNT suspension and immersed into the suspension for 10 minutes. The samples were removed from the suspension and dipped into Ethanol for another 10 minutes to remove the thiolpyridine molecules in the SWNT network. The alignment markers were deposited by defining the markers by photolithography and thermal evaporation of 5 nm Chromium and 50 nm of Gold. The metal Lift off was done by acetone immersion for 15 minutes followed by an Isopropyl alcohol (IPA) wash and N2 blow dry. The result is a uniform thin film CNT network covering the entire substrate surface. Nanodiscs were prepared using a protocol modified from Bayburt et al. 2010 and 2003^55, 56. Nanodiscs were formed at an MSP:protein:lipid ratio of 1:0.2:150. […]

Turning to `COC(=O)c1ccccc1O` [methyl salicylate], the current response entry is “no increase in current”.

These data come from patent US12044651B2, “Sensor device and methods” (SCENTIAN BIO LIMITED, priority 2016, dated 2024).
